Measured values: ChEMBL document CHEMBL1154467, “QSAR study about ATP-sensitive potassium channel activation of cromakalim analogues using CP-MLR approach” (Eur J Med Chem, 2008)

Target: ATP-binding cassette sub-family C member 9 (Rattus norvegicus) (UniProt Q63563)
Assay: […] of SUR2A/kir6.2 channel in Wistar rat thoracic aorta assessed as relaxation of Kcl-induced contraction
Assay type: tissue-based

Chain of ATP-binding cassette sub-family C member 9 (Rattus norvegicus) (Q63563 whole entry): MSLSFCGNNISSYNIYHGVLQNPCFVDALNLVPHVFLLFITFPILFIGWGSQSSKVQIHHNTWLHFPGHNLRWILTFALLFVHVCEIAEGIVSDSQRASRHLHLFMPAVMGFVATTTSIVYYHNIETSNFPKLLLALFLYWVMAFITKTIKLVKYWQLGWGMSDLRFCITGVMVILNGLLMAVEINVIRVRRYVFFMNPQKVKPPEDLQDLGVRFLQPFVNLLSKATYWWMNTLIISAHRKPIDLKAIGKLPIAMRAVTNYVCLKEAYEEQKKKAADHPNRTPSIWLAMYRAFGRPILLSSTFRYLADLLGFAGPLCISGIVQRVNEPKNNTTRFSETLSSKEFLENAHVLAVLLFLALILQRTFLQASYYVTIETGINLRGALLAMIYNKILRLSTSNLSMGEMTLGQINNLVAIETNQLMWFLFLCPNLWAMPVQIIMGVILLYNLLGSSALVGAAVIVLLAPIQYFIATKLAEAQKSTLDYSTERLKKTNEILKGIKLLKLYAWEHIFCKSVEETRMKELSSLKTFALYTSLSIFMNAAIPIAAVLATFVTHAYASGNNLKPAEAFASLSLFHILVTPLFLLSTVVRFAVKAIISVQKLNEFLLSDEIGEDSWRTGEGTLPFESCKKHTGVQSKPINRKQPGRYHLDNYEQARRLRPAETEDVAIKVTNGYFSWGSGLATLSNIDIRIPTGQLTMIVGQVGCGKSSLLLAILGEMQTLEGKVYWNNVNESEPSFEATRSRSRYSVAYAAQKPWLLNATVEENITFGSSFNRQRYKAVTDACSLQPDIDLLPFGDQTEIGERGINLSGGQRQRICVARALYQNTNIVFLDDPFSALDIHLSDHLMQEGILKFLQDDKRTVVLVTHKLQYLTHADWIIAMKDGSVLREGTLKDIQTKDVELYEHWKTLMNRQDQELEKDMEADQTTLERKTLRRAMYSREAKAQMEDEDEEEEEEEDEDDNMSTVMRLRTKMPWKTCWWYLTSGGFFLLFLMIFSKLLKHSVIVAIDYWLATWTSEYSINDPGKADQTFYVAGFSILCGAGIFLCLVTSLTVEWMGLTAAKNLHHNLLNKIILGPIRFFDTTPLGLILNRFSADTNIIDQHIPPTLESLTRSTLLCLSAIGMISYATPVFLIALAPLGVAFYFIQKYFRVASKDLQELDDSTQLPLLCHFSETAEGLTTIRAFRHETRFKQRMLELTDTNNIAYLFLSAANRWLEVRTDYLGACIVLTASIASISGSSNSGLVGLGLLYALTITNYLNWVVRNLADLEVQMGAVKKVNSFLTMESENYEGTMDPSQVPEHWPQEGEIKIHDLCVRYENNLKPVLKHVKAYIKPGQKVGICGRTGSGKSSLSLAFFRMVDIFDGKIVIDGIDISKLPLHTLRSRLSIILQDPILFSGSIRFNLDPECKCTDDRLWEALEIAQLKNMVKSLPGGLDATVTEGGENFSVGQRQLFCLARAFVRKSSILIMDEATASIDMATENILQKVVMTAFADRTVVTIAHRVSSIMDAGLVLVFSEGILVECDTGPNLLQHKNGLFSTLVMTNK

pED50	SMILES
5.37	CC1(C)CC(NC(=S)NCc2ccccc2)c2cc(F)ccc2O1 (configuration not stated)
4.42	CCOC(=O)NC1CC(C)(C)Oc2ccc(Cl)cc21 (configuration not stated)
5.19	CC(=O)NC1CC(C)(C)Oc2ccc(Br)cc21 (configuration not stated)
5.18	CC(=O)NC1CC(C)(C)Oc2ccc(Cl)cc21 (configuration not stated)
4.61	CC1(C)CC(NC(=S)NCc2ccccc2)c2cc(Br)ccc2O1 (configuration not stated)
5.17	CCNC(=O)NC1CC(C)(C)Oc2ccc(Cl)cc21 (configuration not stated)
4.59	CCOC(=O)NC1CC(C)(C)Oc2ccc(Br)cc21 (configuration not stated)
5.43	CCNC(=S)NC1CC(C)(C)Oc2ccc(Br)cc21 (configuration not stated)
< 3.52	CC(C)NC(=O)NC1CC(C)(C)Oc2ccc(Br)cc21 (configuration not stated)
4.29	CC1(C)CC(NC(=O)NS(=O)(=O)c2ccc(Cl)cc2)c2cc(Cl)ccc2O1 (configuration not stated)
3.96	CC(C)NC(=O)NC1CC(C)(C)Oc2ccc(F)cc21 (configuration not stated)
4.7	CC1(C)CC(NC(=S)NCc2ccccc2)c2cc(Cl)ccc2O1 (configuration not stated)
4.37	CCNC(=O)NC1CC(C)(C)Oc2ccc(F)cc21 (configuration not stated)
6.89	CC1(C)Oc2ccc(C#N)cc2C(N2CCCC2=O)C1O (racemic)
5.12	CCNC(=O)NC1CC(C)(C)Oc2ccc(Br)cc21 (configuration not stated)
3.68	CC1(C)CC(NC(=O)NS(=O)(=O)c2ccccc2)c2cc(Cl)ccc2O1 (configuration not stated)
5.09	CCNC(=S)NC1CC(C)(C)Oc2ccc(Cl)cc21 (configuration not stated)
< 3.52	CC1(C)CC(NC(=O)NCc2ccccc2)c2cc(Br)ccc2O1 (configuration not stated)
3.84	CC(C)NC(=O)NC1CC(C)(C)Oc2ccc(Cl)cc21 (configuration not stated)
5.06	CC(C)NC(=S)NC1CC(C)(C)Oc2ccc(Br)cc21 (configuration not stated)
4.2	Cc1ccc(S(=O)(=O)NC(=O)NC2CC(C)(C)Oc3ccc(Cl)cc32)cc1 (configuration not stated)
4.73	CC(C)NC(=S)NC1CC(C)(C)Oc2ccc(F)cc21 (configuration not stated)
4.82	CC1(C)CC(NC(=O)NCc2ccccc2)c2cc(Cl)ccc2O1 (configuration not stated)
4.14	CCOC(=O)NC1CC(C)(C)Oc2ccc(F)cc21 (configuration not stated)
4.75	CCNC(=S)NC1CC(C)(C)Oc2ccc(F)cc21 (configuration not stated)
4.96	CC(C)NC(=S)NC1CC(C)(C)Oc2ccc(Cl)cc21 (configuration not stated)
4.33	CC(=O)NC1CC(C)(C)Oc2ccc(F)cc21 (configuration not stated)
